Experimental data as given in US9597407B2, “Targeted antimicrobial moieties” (C3 Jian, Inc., priority 2009, dated 2017).
“Also recorded” adds a separate entry of the source. Ends that are not written are not given here.

How the values were obtained:
microorganisms = experiment: Morphology, biofilm and growth disruption by peptides (Table 5); assay type: cell-based; design: key: A: Peptide aggregates; B: Less hyphal formation; Clumps; Diffuse clumps and small polyps; F: Diffuse growth; H: Thin; I: Growth inhibition; Microcolony formation; Rippled; Small polyps; Thick; W: Halo formation on top, microlonies on bottom
Source text: In certain embodiments peptides that induce alterations in phenotype or other biological activities can also be used as antimicrobial effector moieties.

bacteria = experiment: Binding of targeting peptides to microorganisms (Table 3); settings: preferably 1x PBS; for Target(s) (microorganisms bound by the targeting peptide) / Target(s) (microorganism bound by the targeting peptide): peptide binding in aqueous buffers that varied depending on peptide solubility
[1] = microorganism bound by the targeting peptide, binding in aqueous buffers chosen by peptide solubility
[2] = microorganism the targeting peptide binds, binding in aqueous buffers that varied with peptide solubility

## PF-188 (ARTFAGRLGTRYFGGLMRSTKA; Peptide with targeting and/or antimicrobial activity)
microorganisms; C. jeikeium
  Organism, effect: C. jeikeium (H)
bacteria; [1]
  Target(s): S. epidermidis and M. luteus and E. coli and C. albicans and MRSA and E. faecalis

## CGKLLEQKNFFLKTR [PF-521]
microorganisms; S. pneumoniae
  Organism, effect (morphology, biofilm and growth disruption): S. pneumoniae (H)
bacteria
  Target(s) (microorganisms bound by the targeting peptide): S. epidermidis; also recorded: E. coli; also recorded: P. aeruginosa; also recorded: S. pneumoniae; also recorded: E. faecalis

## PF-010 (chain 1 MDIDVNKLLQAFVYFKSFEKLRHNNS; chain 2 MDIDVNKLLQAFVYFKSFEKLRHNNS; Peptide with targeting and/or antimicrobial activity)
microorganisms; C. jeikeium
  Organism, effect: C. jeikeium (A)
microorganisms; M. luteus
  Organism, effect: M. luteus (A)
microorganisms; MRSA
  Organism, effect: MRSA (R)
microorganisms; S. epidermidis
  Organism, effect: S. epidermidis (S)
bacteria; [2]
  Target(s): S. epidermidis; also recorded: M. luteus; also recorded: E. coli; also recorded: C. albicans

## PF-588 (ESVEAIKAKAIK; Peptide with targeting and/or antimicrobial activity)
microorganisms; E. faecalis
  Organism, effect (morphology, biofilm and growth disruption): E. faecalis (A)
bacteria
  Target(s) (microorganisms bound by the targeting peptide): S. epidermidis; also recorded: E. coli; also recorded: C. albicans; also recorded: E. faecalis; also recorded: C. jeikeium; also recorded: C. jejuni

## MQIFYIKTKIFLSFFLFLLIFSQCFYKIEE [PF-442]
microorganisms; MRSA
  Organism, effect (morphology, biofilm and growth disruption): MRSA (M)
microorganisms; S. pneumoniae
  Organism, effect (morphology, biofilm and growth disruption): S. pneumoniae (C)
bacteria
  Target(s) (microorganisms bound by the targeting peptide): S. epidermidis; also recorded: E. coli; also recorded: C. albicans; also recorded: S. pneumoniae; also recorded: E. faecalis

## PF-602 (LEKEKKEYIEKLFKTK; Peptide with targeting and/or antimicrobial activity)
microorganisms; E. faecalis
  Organism, effect (morphology, biofilm and growth disruption): E. faecalis (A)
bacteria
  Target(s) (microorganism bound by the targeting peptide): P. mirabilis; also recorded: C. jeikeium

## PF-413 (TFAGSIKIGVPDLVHVTFNCKR; Peptide with targeting and/or antimicrobial activity)
microorganisms; E. coli
  Organism, effect: E. coli (S)
microorganisms; MRSA
  Organism, effect: MRSA (C)
microorganisms; S. epidermidis
  Organism, effect: S. epidermidis (C)
bacteria
  Target(s) (microorganisms bound by the targeting peptide): P. aeruginosa; also recorded: C. albicans; also recorded: C. jejuni

## PF-156 (LITAEQPATAPIAGK; Peptide with targeting and/or antimicrobial activity)
microorganisms; MRSA
  Organism, effect: MRSA (H)
bacteria; [1]
  Target(s): S. epidermidis; also recorded: C. jeikeium

## PF-235 (GIPFSKPHKRQVNYMKSDVLAYIEQNKMAHTA; Peptide with targeting and/or antimicrobial activity)
microorganisms; M. luteus
  Organism, effect: M. luteus (T)
bacteria; [1]
  Target(s): S. epidermidis; also recorded: M. luteus

## PF-652 (chain 1 FLAPARPDLQAQRQALAQ; chain 2 FLAPARPDLQAQRQALAQ; Peptide with targeting and/or antimicrobial activity)
microorganisms; S. pneumoniae
  Organism, effect (morphology, biofilm and growth disruption): S. pneumoniae (A)
bacteria
  Target(s) (microorganism bound by the targeting peptide): Mycobacteria spp

## PF-694 (chain 1 DLIRPLYSMSAPSVA; chain 2 DLIRPLYSMSAPSVA; Peptide with targeting and/or antimicrobial activity)
microorganisms; MRSA
  Organism, effect (morphology, biofilm and growth disruption): MRSA (R)
microorganisms; S. pneumoniae
  Organism, effect (morphology, biofilm and growth disruption): S. pneumoniae (A)
bacteria
  Target(s) (microorganism bound by the targeting peptide): Mycobacteria spp

## PF-175 (RRRPAGQRPEKASQAMIAA; Peptide with targeting and/or antimicrobial activity)
microorganisms; B. subtilis
  Organism, effect: B. subtilis (D)
microorganisms; C. albicans
  Organism, effect: C. albicans (B)
microorganisms; C. jejuni
  Organism, effect: C. jejuni (M)
microorganisms; M. luteus
  Organism, effect: M. luteus (S)
microorganisms; S. pneumoniae
  Organism, effect: S. pneumoniae (A)
bacteria; [1]
  Target(s): S. epidermidis; also recorded: E. faecalis

## PF-009 (chain 1 SKKYNHILNQENR; chain 2 SKKYNHILNQENR; Peptide with targeting and/or antimicrobial activity)
microorganisms; S. epidermidis
  Organism, effect: S. epidermidis (S)
bacteria; [2]
  Target(s): M. luteus; also recorded: P. mirabilis; also recorded: C. albicans

## PF-C120 (ASLSTMTFKVMELKELIILLCGLTMLMIQTEFV; Peptide with targeting and/or antimicrobial activity)
microorganisms; F. nucleatum
  Organism, effect (morphology, biofilm and growth disruption): F. nucleatum (T)
bacteria
  Target(s) (microorganism bound by the targeting peptide): A. naeslundii; also recorded: F. nucleatum; also recorded: P. gingivalis; also recorded: S. mutans; also recorded: T. denticola

## WSRVPGHSDTGWKVWHRW-NH2 [PF-547]
microorganisms; B. subtilis
  Organism, effect (morphology, biofilm and growth disruption): B. subtilis (I)
microorganisms; E. faecalis
  Organism, effect (morphology, biofilm and growth disruption): E. faecalis (R)
microorganisms; MRSA
  Organism, effect (morphology, biofilm and growth disruption): MRSA (M)
microorganisms; S. epidermidis
  Organism, effect (morphology, biofilm and growth disruption): S. epidermidis (R)
bacteria
  Target(s) (microorganisms bound by the targeting peptide): S. epidermidis and E. coli and P. aeruginosa and C. albicans and MRSA and S. pneumoniae and E. faecalis

## MGIIAGIIKFIKGLIEKFTGK [PF-006]
microorganisms; B. subtilis
  Organism, effect: B. subtilis (I)
microorganisms; C. jejuni
  Organism, effect: C. jejuni (D)
microorganisms; M. luteus
  Organism, effect: M. luteus (A)
microorganisms; MRSA
  Organism, effect: MRSA (I)
microorganisms; S. epidermidis
  Organism, effect: S. epidermidis (D)
microorganisms; S. pneumoniae
  Organism, effect: S. pneumoniae (R)
bacteria; [2]
  Target(s): S. epidermidis and M. luteus and E. coli and P. aeruginosa and MRSA and E. faecalis and C. jeikeium and C. jejuni

## PF-631 (chain 1 LIIYFSKTGNTARATRQI; chain 2 LIIYFSKTGNTARATRQI; Peptide with targeting and/or antimicrobial activity)
microorganisms; E. faecalis
  Organism, effect (morphology, biofilm and growth disruption): E. faecalis (H)
microorganisms; S. pneumoniae
  Organism, effect (morphology, biofilm and growth disruption): S. pneumoniae (I)
bacteria
  Target(s) (microorganism bound by the targeting peptide): S. epidermidis and P. aeruginosa and C. albicans and MRSA and S. pneumoniae and E. faecalis and C. jeikeium

## HKNKLNIPHIKS [PF-477]
microorganisms; S. pneumoniae
  Organism, effect (morphology, biofilm and growth disruption): S. pneumoniae (H)
bacteria
  Target(s) (microorganisms bound by the targeting peptide): S. epidermidis; also recorded: M. luteus; also recorded: C. albicans; also recorded: S. pneumoniae; also recorded: C. jeikeium; also recorded: C. jejuni

## PF-C052 (SRFRNGV; Peptide with targeting and/or antimicrobial activity)
microorganisms; P. gingivalis
  Organism, effect (morphology, biofilm and growth disruption): P. gingivalis (H)
bacteria
  Target(s) (microorganism bound by the targeting peptide): A. naeslundii; also recorded: F. nucleatum; also recorded: S. mutans

## HCVIGNVVDIANLLKRRAVYRDIADVIKMR [PF-071]
microorganisms; B. subtilis
  Organism, effect: B. subtilis (D)
microorganisms; C. albicans
  Organism, effect: C. albicans (B)
microorganisms; C. jejuni
  Organism, effect: C. jejuni (A)
microorganisms; M. luteus
  Organism, effect: M. luteus (R)
microorganisms; MRSA
  Organism, effect: MRSA (C)
microorganisms; S. epidermidis
  Organism, effect: S. epidermidis (R)
microorganisms; S. pneumoniae
  Organism, effect: S. pneumoniae (A)
bacteria; [2]
  Target(s): S. epidermidis and E. coli and P. aeruginosa and C. albicans and MRSA

## PF-629 (chain 1 GLAAIATVFALY; chain 2 GLAAIATVFALY; Peptide with targeting and/or antimicrobial activity)
microorganisms; C. jeikeium
  Organism, effect (morphology, biofilm and growth disruption): C. jeikeium (R)
microorganisms; E. faecalis
  Organism, effect (morphology, biofilm and growth disruption): E. faecalis (R)
microorganisms; MRSA
  Organism, effect (morphology, biofilm and growth disruption): MRSA (D)
microorganisms; S. epidermidis
  Organism, effect (morphology, biofilm and growth disruption): S. epidermidis (C)
microorganisms; S. pneumoniae
  Organism, effect (morphology, biofilm and growth disruption): S. pneumoniae (M)
bacteria
  Target(s) (microorganism bound by the targeting peptide): S. epidermidis and P. aeruginosa and C. albicans and MRSA and S. pneumoniae and E. faecalis and C. jeikeium

## PF-406 (YLEMNADYLSNMDIFDELWEKYLENNK; Peptide with targeting and/or antimicrobial activity)
microorganisms; MRSA
  Organism, effect: MRSA (M)
microorganisms; S. epidermidis
  Organism, effect: S. epidermidis (C)
bacteria
  Target(s) (microorganisms bound by the targeting peptide): E. coli; also recorded: C. jejuni

## PF-133 (GDPTAGQKPVECP; Peptide with targeting and/or antimicrobial activity)
microorganisms; C. jeikeium
  Organism, effect: C. jeikeium (R)
bacteria; [1]
  Target(s): S. epidermidis; also recorded: C. jeikeium; also recorded: C. jejuni; also recorded: M. smegmatis

## PF-276 (LDLALSTNSLNLEGFSF; Peptide with targeting and/or antimicrobial activity)
microorganisms; M. luteus
  Organism, effect: M. luteus (M)
bacteria; [1]
  Target(s): S. epidermidis

## PF-590 (YYQAKLFPLL; Peptide with targeting and/or antimicrobial activity)
microorganisms; C. jejuni
  Organism, effect (morphology, biofilm and growth disruption): C. jejuni (R)
bacteria
  Target(s) (microorganisms bound by the targeting peptide): S. epidermidis; also recorded: M. luteus; also recorded: E. coli; also recorded: E. faecalis; also recorded: C. jeikeium

## PF-204 (ALQKQDMNLPSVKNQLVFLKSTG; Peptide with targeting and/or antimicrobial activity)
microorganisms; C. jeikeium
  Organism, effect: C. jeikeium (D)
microorganisms; M. luteus
  Organism, effect: M. luteus (C)
microorganisms; P. aeruginosa
  Organism, effect: P. aeruginosa (H)
microorganisms; S. epidermidis
  Organism, effect: S. epidermidis (C)
bacteria; [1]
  Target(s): S. epidermidis; also recorded: P. mirabilis; also recorded: E. coli; also recorded: P. aeruginosa; also recorded: C. albicans; also recorded: C. jejuni

## PF-153 (GILARADCSQIA; Peptide with targeting and/or antimicrobial activity)
microorganisms; C. jeikeium
  Organism, effect: C. jeikeium (C)
microorganisms; S. epidermidis
  Organism, effect: S. epidermidis (M)
bacteria; [1]
  Target(s): M. luteus and P. mirabilis and E. coli and MRSA

## PF-642 (chain 1 FTTPMIGIPAGLLGGSYYLKRREEKGK; chain 2 FTTPMIGIPAGLLGGSYYLKRREEKGK; Peptide with targeting and/or antimicrobial activity)
microorganisms; MRSA
  Organism, effect (morphology, biofilm and growth disruption): MRSA (M)
bacteria
  Target(s) (microorganism bound by the targeting peptide): M. luteus and MRSA and C. jeikeium

## VLPFPAIPLSRRRACVAAPRPRSRQRAS [PF-168]
microorganisms; MRSA
  Organism, effect: MRSA (I)
microorganisms; P. aeruginosa
  Organism, effect: P. aeruginosa (H)
bacteria; [1]
  Target(s): S. epidermidis and M. luteus and E. coli and C. albicans and MRSA and C. jeikeium and C. jejuni
